Values of other authors as cited in patent EP0134290A1, “Constant release rate solid dosage theophyllineformulation” (VEREX LABORATORIES, INC., priority 1983, dated 1985).

Settings: similar dose of regular theophylline; published; spread +- 2.1

Cn1c(=O)c2[nH]cnc2n(C)c1=O [regular theophylline, theophylline]
excretion half life: 9.0 h
